Results as given in paper PMC10786919, “Design-rules for stapled peptides with in vivo activity and their application to Mdm2/X antagonists” (Nature Communications, 2024).
Like-named read-outs stand apart in the source and are kept apart here. Positions of bridges follow the written chain, without caps; N, C: chain ends. Non-standard residues stand in square brackets, D forms with d. Residues, ends and D or L forms follow the SMILES beside them. dPhe(4-CF3) = N[C@H](Cc1ccc(C(F)(F)F)cc1)C(=O)O; dTrp(6-F) = N[C@H](Cc1c[nH]c2cc(F)ccc12)C(=O)O; Lys(N3) = [N-]=[N+]=NCCCC[C@H](N)C(=O)O; R8 = C=CCCCCCC[C@@](C)(N)C(=O)O; Cba = N[C@@H](CC1CCC1)C(=O)O; R5 = C=CCCC[C@@](C)(N)C(=O)O; S5 = C=CCCC[C@](C)(N)C(=O)O; βAla = NCCC(=O)O

Assays:
[1] = Lactate dehydrogenase (LDH) release assay; format: cell-based
How it was run: (§1)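 A p53 β-lactamase reporter HCT116 line, 8000 cells per well, is exposed to test compounds at 0.5% final DMSO and scored for LDH leakage.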

[2] = test system: Ca Ski cell line
How it was run: (§2)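 Compound dilution series (10 points, 3-fold, 10 mM top stock in DMSO) tested on overnight-plated Ca Ski cells in RPMI1640/10% FBS and on blasticidin-selected p53RE-bla HCT-116 cells in McCoy's 5A; read-out was CellTiter-Glo 2.0 luminescence after room-temperature equilibration.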

[3] = test system: CellSensor p53RE-bla HCT-116 Cell Line
How it was run: as §2

[4] = in vitro
How it was run: (§3)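 Azido-peptide permeability was read as loss of NanoBRET signal (donor 450 nm, acceptor 610 nm) after adding NanoBret618-azide at 10 μM final.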

[5] = test system: cells transiently transfected with the NanoLuc-HaloTag vector; test: Nanoclick permeability assay; details: 4Hr
How it was run: as §3

[6] = biological target: T1, human Mdm2 1–125 (Homo sapiens, UniProt Q00987); test: Mdm2 binding by competitive fluorescence anisotropy assay (FP binding)
T1 construct: GST (N); His6 (internal); TEV cleavage site (ENLYFQG) (internal); made in house; host or cells: BL21 (DE3) Rosetta T1R Escherichia coli

[7] = test system: HCT116 cells; test: Lactate dehydrogenase (LDH) release assay; format: cell-based
How it was run: as §1

[8] = Nanoclick permeability assay EC50
[9] = 0% FBS 4Hr, read-out: LDH: Cytotoxicity assay: EC50
[10] = read-out: Cell Proliferation assay EC50, Ca-Ski, p53 Mut, Ca-Ski
[11] = FP binding assay KD, Tween-20 <CMC
[12] = 0% FBS 4Hr, read-out: LDH: Cytotoxicity assay EC50
[13] = 10% FBS 16Hr, read-out: LDH: Cytotoxicity assay EC50
[14] = read-out: Cell Proliferation assay EC50, HCT116, p53 WT, HCT116
[15] = 4 hours, 0% serum, read-out: LDH Cytotoxicity assay EC50
[16] = read-out: Proliferation EC50 Ca Ski (Off-target), Ca Ski
[17] = read-out: Proliferation EC50 HCT116 (On-target), HCT116

T1 sequence (Q00987 with tags, fused parts or gaps): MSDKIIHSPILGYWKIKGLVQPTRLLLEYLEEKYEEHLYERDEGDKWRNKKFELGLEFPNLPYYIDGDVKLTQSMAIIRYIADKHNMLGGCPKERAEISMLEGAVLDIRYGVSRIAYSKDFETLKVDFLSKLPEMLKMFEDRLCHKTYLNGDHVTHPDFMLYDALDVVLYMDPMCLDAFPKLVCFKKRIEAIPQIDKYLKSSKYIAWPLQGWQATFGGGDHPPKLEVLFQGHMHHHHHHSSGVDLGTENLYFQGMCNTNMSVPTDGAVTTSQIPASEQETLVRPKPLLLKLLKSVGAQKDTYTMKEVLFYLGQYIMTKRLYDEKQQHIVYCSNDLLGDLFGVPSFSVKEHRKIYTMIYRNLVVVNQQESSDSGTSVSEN

SMILES	EC50 ([1]; LDH: Cytotoxicity assay EC50) [µM]	Nanoclick permeability assay % Effect [5] [%]	EC50 [2, 10] [µM]	cell entry EC50 [4] [µM]	Kd ([6]; Binding KD) [µM]	Kd [6, 11] [µM]	LDH: Cytotoxicity assay % Effect ([7]; 0% FBS 4Hr) [%]	LDH: Cytotoxicity assay % Effect ([7]; 10% FBS 16Hr) [%]	EC50 [1, 12] [µM]	EC50 [1, 13] [µM]	EC50 [3, 14] [µM]	also measured
CC(=O)N[C@@H](CCCCN=[N+]=[N-])C(=O)NCCC(=O)N[C@@H](CC(C)C)C(=O)N[C@H](C(=O)N[C@@H](Cc1ccccc1)C(=O)N[C@]1(C)CCCCCCC=CCCC[C@@](C)(C(=O)N[C@@H](CO)C(=O)N[C@@H](C)C(=O)N[C@@H](C)C(N)=O)NC(=O)[C@H](CC2CCC2)NC(=O)[C@H](CCC(N)=O)NC(=O)[C@H](C)NC(=O)[C@H](Cc2c[nH]c3ccccc23)NC(=O)[C@H](Cc2ccc(O)cc2)NC(=O)[C@H](Cc2c[nH]c3ccccc23)NC1=O)[C@@H](C)O [MP-185] (Ac-[Lys(N3)][βAla]LTF[R8]WYWAQ[Cba][S5]SAA-NH2; staple 6-13)	> 50	140.4										EC50 ([2]; 72 h): > 49.8 µM; EC50 ([3]; 72 h): 1.97 µM; cell entry EC50 [4, 8]: 0.0774 µM; Kd ([6]; read-out: FP binding assay KD): 0.0985 µM
CC(=O)N[C@@H](CCCCN=[N+]=[N-])C(=O)NCCC(=O)N[C@@H](CC(C)C)C(=O)N[C@H](C(=O)N[C@@H](Cc1ccccc1)C(=O)N[C@]1(C)CCCCCCC=CCCC[C@@](C)(C(=O)N2CCC[C@@H]2C(=O)N2CCC[C@@H]2C(=O)N2CCC[C@@H]2C(=O)N2CCC[C@@H]2C(=O)N2CCC[C@@H]2C(=O)N2CCC[C@@H]2C(N)=O)NC(=O)[C@H](CC2CCC2)NC(=O)[C@H](CCC(N)=O)NC(=O)[C@H](C)NC(=O)[C@H](Cc2c[nH]c3ccccc23)NC(=O)[C@H](Cc2ccc(O)cc2)NC(=O)[C@H](CCC(=O)O)NC1=O)[C@@H](C)O [MP-896]		114.3	> 49.8	1.42	0.011	0.0109						LDH: Cytotoxicity assay: % Effect ([7]; 0% FBS 4Hr): -5.717%; LDH: Cytotoxicity assay: % Effect ([7]; 10% FBS 16Hr): 1.172%; EC50 [1, 9]: > 50.7 µM; EC50 ([1]; 10% FBS 16Hr, read-out: LDH: Cytotoxicity assay: EC50): > 50.7 µM
CC(=O)N[C@@H](CC(C)C)C(=O)N[C@H](C(=O)N[C@@H](Cc1ccccc1)C(=O)N[C@]1(C)CCCCCCC=CCCC[C@@](C)(C(=O)N[C@@H](CO)C(=O)N[C@@H](C)C(=O)N[C@@H](C)C(N)=O)NC(=O)[C@@H](CC2CCC2)NC(=O)[C@H](CC(C)C)NC(=O)[C@H](CCC(N)=O)NC(=O)[C@H](Cc2c[nH]c3ccccc23)NC(=O)[C@H](Cc2ccc(O)cc2)NC(=O)[C@H](CCC(=O)O)NC1=O)[C@@H](C)O [MP-009]	> 50.7	22.02										Kd ([6]; read-out: FP binding assay KD): 2.22 µM
CC(=O)N[C@@H](CCCCN=[N+]=[N-])C(=O)NCCC(=O)N[C@@H](CC(N)=O)C(=O)N[C@H](C(=O)N[C@@H](Cc1ccccc1)C(=O)N[C@]1(C)CCCCCCC=CCCC[C@@](C)(C(=O)N[C@@H](CC(N)=O)C(=O)N[C@@H](CC(N)=O)C(=O)N[C@@H](CC(N)=O)C(N)=O)NC(=O)[C@H](CC2CCC2)NC(=O)[C@H](CCC(N)=O)NC(=O)[C@H](CC(N)=O)NC(=O)[C@H](Cc2c[nH]c3ccccc23)NC(=O)[C@H](Cc2ccc(O)cc2)NC(=O)[C@H](CC(N)=O)NC1=O)[C@@H](C)O [MP-359, azide-ATSP-7041 (L1N, E5N, A8N, S12N, A13N, A14N)] (Ac-[Lys(N3)][βAla]NTF[R8]NYWNQ[Cba][S5]NNN-NH2; staple 6-13)		112.9		0.38	0.015							LDH: Cytotoxicity assay: % Effect ([7]; 0% FBS 4Hr): -2.842%; EC50 [1, 9]: > 50.6 µM; EC50 ([2]; read-out: Cell Proliferation assay EC50, p53 Mut, Ca-Ski): > 49.8 µM; EC50 ([3]; read-out: Cell Proliferation assay EC50, p53 WT, HCT116): 27.1 µM
CC(C)C[C@@H](NC(=O)[C@@]1(C)CCCC=CCCC[C@@](C)(NC(=O)[C@@H](C)NC(=O)[C@@H](Cc2ccc(O)cc2)NC(=O)[C@@H](Cc2c[nH]c3cc(F)ccc23)NC(=O)[C@@H](C)NC(=O)[C@H](N)[C@H](C)O)C(=O)N[C@H](Cc2ccc(C(F)(F)F)cc2)C(=O)N[C@H](CCC(=O)O)C(=O)N[C@H](CCC(N)=O)C(=O)N1)C(=O)N[C@H](CO)C(N)=O [MP-795] (H-[dT][dA][dTrp(6-F)][dY][dA][R5][dPhe(4-CF3)][dE][dQ][R5][dL][dS]-NH2; staple 6-10)		23.68	22.5	> 10		0.152	13.17	16.65	> 50.7	> 50.7	26.4	
CC(=O)N[C@@H](C(=O)N[C@H](C)C(=O)N[C@H](Cc1c[nH]c2cc(F)ccc12)C(=O)N[C@H](Cc1ccc(O)cc1)C(=O)N[C@H](C)C(=O)N[C@]1(C)CCCC=CCCC[C@](C)(C(=O)N[C@H](CC(C)C)C(=O)N[C@H](CO)C(N)=O)NC(=O)[C@@H](CCC(N)=O)NC(=O)[C@@H](CCC(=O)O)NC(=O)[C@@H](Cc2ccc(C(F)(F)F)cc2)NC1=O)[C@H](C)O [MP-797] (Ac-[dT][dA][dTrp(6-F)][dY][dA][R5][dPhe(4-CF3)][dE][dQ][R5][dL][dS]-NH2; staple 6-10)		69.79	30.4	> 10		0.258	33.6	29.91	> 50.7	> 50.7	9.09	EC50 [1, 15]: > 50 µM; EC50 [2, 16]: 30.4 µM; EC50 [3, 17]: 9.1 µM
CC(=O)N[C@@H](C(=O)N[C@H](C)C(=O)N[C@H](Cc1c[nH]c2cc(F)ccc12)C(=O)N[C@H](Cc1ccc(O)cc1)C(=O)N[C@H](C)C(=O)N[C@]1(C)CCCC=CCCC[C@](C)(C(=O)N[C@H](CC(C)C)C(=O)N[C@H](CO)C(=O)N[C@H](C)C(=O)N[C@H](C)C(=O)N[C@H](C)C(N)=O)NC(=O)[C@@H](CCC(N)=O)NC(=O)[C@@H](CCC(=O)O)NC(=O)[C@@H](Cc2ccc(C(F)(F)F)cc2)NC1=O)[C@H](C)O [MP-0230] (Ac-[dT][dA][dTrp(6-F)][dY][dA][R5][dPhe(4-CF3)][dE][dQ][R5][dL][dS][dA][dA][dA]-NH2; staple 6-10)	> 50.7	30.67										cell entry EC50 [4, 8]: > 10 µM; Kd ([6]; Tween-20 <CMC, read-out: FP binding assay KD): 0.00311 µM
CC(=O)N[C@@H](C(=O)N[C@H](C)C(=O)N[C@H](Cc1c[nH]c2cc(F)ccc12)C(=O)N[C@H](Cc1ccc(O)cc1)C(=O)N[C@H](C)C(=O)N[C@]1(C)CCCC=CCCC[C@](C)(C(=O)N[C@H](CC(C)C)C(=O)N[C@H](CO)C(=O)N[C@H](C)C(=O)N[C@H](C)C(=O)N[C@H](C)C(=O)N[C@H](C)C(=O)N[C@H](C)C(=O)N[C@H](C)C(=O)N[C@H](C)C(=O)N[C@H](C)C(=O)N[C@H](C)C(N)=O)NC(=O)[C@@H](CCC(N)=O)NC(=O)[C@@H](CCC(=O)O)NC(=O)[C@@H](Cc2ccc(C(F)(F)F)cc2)NC1=O)[C@H](C)O [MP-1230] (Ac-[dT][dA][dTrp(6-F)][dY][dA][R5][dPhe(4-CF3)][dE][dQ][R5][dL][dS][dA][dA][dA][dA][dA][dA][dA][dA][dA]-NH2; staple 6-10)			> 49.8			0.0217	4.322	-2.735	> 50.7	> 50.7	21.4	
CC(=O)N[C@@H](C(=O)N[C@H](C)C(=O)N[C@H](Cc1c[nH]c2cc(F)ccc12)C(=O)N[C@H](Cc1ccc(O)cc1)C(=O)N[C@H](C)C(=O)N[C@]1(C)CCCC=CCCC[C@](C)(C(=O)N[C@H](CC(C)C)C(=O)N[C@H](CO)C(=O)N[C@H](C)C(=O)N[C@H](C)C(=O)N[C@H](C)C(=O)N[C@H](C)C(=O)N[C@H](C)C(=O)N[C@H](C)C(N)=O)NC(=O)[C@@H](CCC(N)=O)NC(=O)[C@@H](CCC(=O)O)NC(=O)[C@@H](Cc2ccc(C(F)(F)F)cc2)NC1=O)[C@H](C)O [MP-042] (Ac-[dT][dA][dTrp(6-F)][dY][dA][R5][dPhe(4-CF3)][dE][dQ][R5][dL][dS][dA][dA][dA][dA][dA][dA]-NH2; staple 6-10)		1.941	32	> 10	0.03	0.00323	8.154	15.87	> 50.7	> 50.7	4.24	EC50 [1, 15]: > 50 µM; EC50 [2, 16]: 31 µM; EC50 [3, 17]: 1.5 µM
